Source: patent US20080044805A1, “Biopolymer-Dye Complex and Use as a Bioassay” (STC.UNM, priority 2006, published 2008)

What was measured:
[1] = Hyaluronidase activity, scaffold destruction fluorescent assay; format: biochemical; settings: hyaluronic acid substrate; estimated from maximal fluorescence of unreacted mix
Procedure: Hyaluronidase enzyme (11.3 U of E.C. 3.2.1.35) was mixed with 8 μg of hyaluronic acid in a total volume of 500 μL at 25° C. After 0, 20, 40, 60, 80, 100, 120 and 140 minutes, a portion of the reaction mixture was diluted into 20 μM concentrations of cyanine dye of Formula I dissolved in 20% methanol-80% water mixture dispensed into the wells of a 96 well microplate (Optiplate™-96, Perkin Elmer Life Sciences, Boston, Mass.) to a total volume of 275 μL. Sixty minutes after adding the reaction mixture to the cyanine solution, the fluorescence was measured using a Mithras LB 940 microplate spectrofluorometer (Berthold Instruments, Oak Ridge, Tenn.). The enzymatic reaction volume that was added to the cyanine dye solution represented approximately 364 ng of intact hyaluronic acid that might be present in the complete absence of enzymatic hydrolysis. This amount of hyaluronic was equivalent to the mid-point in the rise of the hyaluronic titration curve in FIG. 23. […] Hyaluronic acid in amounts of 0, 200, 400, 600, 800 and 1000 ng respectively were mixed with 1 U of hyaluronidase in a total volume of 100 μL. […] Based upon maximal fluorescence from reactions in which the enzyme and substrate were mixed but not allowed to react, it was estimated that hyaluronidase activity level reached a plateau between 60 to 80 minutes, representing 50% hydrolysis of the substrate.

[2] = Water solubility of the cyanine dye; format: physicochemical
Source text: For fluorescence of the polymers in solution, J-aggregate fluorescence became prominent for polymers having at least 33 cationic polymer repeat units. The fluorescence of the polymer is subject to very strong “super-quenching” by oppositely charged electron acceptors and energy-transfer quenchers that equals or exceeds that observed for conjugated polyelectrolytes by the same kind of quenchers. […] In exemplary embodiments, a cyanine dye of formula I, below, is used.

hydrolysis of the substrate at plateau [1] [%] | water solubility [2] | Compound
50 |  | hyaluronidase
 | moderate | CCN1C(=Cc2sc3ccc(Cl)cc3[n+]2CC)Sc2ccc(Cl)cc21.[I-] [cyanine dye of Formula I]
